Measurements: patent publication US20240059729A1, “MULTIFUNCTIONAL CYCLIC DINUCLEOTIDE AND USE THEREOF” (TYLIGAND BIOSCIENCE (SHANGHAI) LIMITED, priority 2020, published 2024)
Where a name gives a salt, the structure may show the parent alone.

Test system: CT26 cells
Experiment: Inhibition of proliferation of CT26 cells (CellTiter-Glo)
Format: cell-based, mouse
Conditions: for IC50: 120 hours, CellTiter-Glo

Structure (SMILES)	IC50 (Mus musculus)	Inhibitory potency on in vitro growth of CT26 tumor cells (in words)	IC50
Nc1nc2c(ncn2[C@@H]2O[C@@H]3CO[P@@](=O)(S)OC4C(F)[C@H](n5cnc6c(N)nc(Cl)nc65)O[C@@H]4CO[P@@](=O)(S)OC3C2O)c(=O)[nH]1 (some centres unmarked) [Example 17, diammonium salt]	1 to 10 µM	–	–
Nc1nc2c(ncn2[C@@H]2O[C@@H]3CO[P@@](=O)(S)OC4C(F)[C@H](n5cnc6c(N)nc(Cl)nc65)O[C@@H]4CO[P@@](=O)(S)OC2C3O)c(=O)[nH]1 (stereo partly drawn) [Example 10, (2′,3′)-cyclo-(Rp,Rp)-[2′-O-phosphorothioate-diester-guanosine]-[3′-O-phosphorothioate-diester-2-chloro-2′-deoxy-2′-fluoro-beta-adenosine] diammonium salt]	< 1 µM	particularly significant inhibitory potency	–
Nc1ncnc2c1ncn2[C@@H]1O[C@@H]2COP(=O)([S-])O[C@@H]3[C@H](O)[C@@H](COP([O-])(=S)O[C@H]2[C@H]1O)O[C@H]3n1cnc2c(N)ncnc21.[Na+].[Na+] (some centres unmarked) [ADU-S100, reference compound]	–	no significant tumor cell inhibitory potency	> 10 µM
